Data reported in patent US4443448A, “Indane derivatives, pharmaceutical compositions thereof and method of preparation” (priority 1980, dated 1984).
Read-outs that look alike come from different tables or passages of the source.

What was measured:
[1] = system: 3H-DA uptake in striatal synaptosomes; assay: 3H-DA uptake in striatal synaptosomes in vitro; type: biochemical, rats; conditions: rat striatal synaptosomes, 12.5 nM 3H-DA, 37° C., pH 7.4
Method: ^3 H-DA uptake in striatal synaptosomes in vitro
0.32 M sucrose containing 1 mM Nialamide
Millipore filters (HAWPO 2500, 0.45μ)
3,4-dihydroxyphenylethylamine[ethyl-1-^3 H(N)]=^3 H-DA spc. act. app. 15 Ci/mmol, New England Nuclear Thomas Tissue Grinder, clearance 0.004-0.006 inch.
Rats are killed by a blow to their head, exsanguinated and their brains removed. The brain is placed on a precooled glassplate, and the two corpura striata are dissected out and gently homogenized in 40 volumes of ice cold 0.32 M sucrose containing 1 mM of nialamide using a hand homogenizer with teflon pestle. The P2 -fraction (synaptosomal fraction) is obtained by centrifugation (600 g, 10 min., 25000 g, 55 min. 4° C.) and suspended in 40 volumes of a modified Krebs-Ringer-phosphate buffer, pH 7.4. To 200 μl of the synaptosomal fraction on ice are added 3700 μl modified Krebs-Ringer-phosphate buffer--containing test compounds. After a preincubation at 37° C. for 5 min. […] The incubation is terminated by filtering the samples under vacuum through Millipore filters with a wash of 5 ml buffer containing 10 μM of unlabelled DA. After solubilizing the filters in 1 ml of cellosolve the radioactivity is determined by liquid scintillation counting after the addition of 10 ml of Insta-Gel. The unspecific binding of ^3 H-DA is determined by incubating control samples on ice instead of at 37° C.
All experiments are performed in triplicate.
The mean of all control samples and ice samples are calculated. […] The IC50-values are determined as the concentrations, at which the uptake are 50 percent of the uptake in control samples-uptake in ice samples.

amphetamine = assay: Amphetamine antagonism in rats; type: in vivo; conditions: for ED50: Rattus norvegicus, po, read-out: Amphetamine antag. ED50 p.o.
Method: Amphetamine antagonism (ED50 mg/kg i.p.)
(§1) Perspex observation cages without bottom and lid, consisting of 5 sections each measuring 12×25×30 cm.
The test substance is given p.o. in a reasonable dose based on the determined LD50. Two or 24 hours later an intravaneous injection of amphetamine sulphate 13.6 mg/kg (10 mg/kg amphetamine base) is given, after which the rats are placed individually in the cages. The cages are placed on white corrugated paper. Five rats are used for each dose level. Observations are made after 55 minutes and 65 minutes-observation time: 1 minute. The animals are observed for stereotypy (movements of the head, compulsive gnawing). […] If the compound has full antagonistic effect another group of rats is used at a lower dose. […] The result is stated as fractions: 0/5, 1/5, 2/5, 3/5, 4/5 and 5/5, where 0, 1, 2, 3, 4 and 5 indicate the number of rats which have not shown stereotypy at the dose in question. The results are calculated as ED50 in mg/kg.

in vivo [2] = assay: in vivo; parameters: species or system rats; conditions: for Ratio catalep./Amphet.: catalepsy ED50 / amphetamine antagonism ED50; for ED50: rat, in vivo, po
Method: A vertical wire netting (50 cm×49 cm). The meshes (openings) of the netting are square (1 cm×1 cm). The wire diameter is 2 mm.
The animals are labeled and used in groups of five. The test substance is administered orally (p.o) at 4 dose levels selected from the fixed dose scale.
The animals are placed in the middle of the vertical wire netting 60, 120, 180, 240, 300 and 360 minutes after administration of the test compound. The animals are considered cataleptic when they remain immobile during a period of 15 seconds.
This cataleptic reaction is designated +. If the rats are "atonic" and passively slide down the wire mesh they are considered not cataleptic. If the animals climb up and down the wire mesh they are nor cataleptic.
In both situations the designation--is used.

[3] = Mouse grid shock (analgesia); type: in vivo; conditions: mice, minimal effective dose, in mg/kg
Method: The mouse grid consists of a perspex cage with wire grid bottom and a perspex lid, on which is placed a microphone sensitive to the frequency of a mouse squeak. A stimulator with motordriven potentiometer applies a sequence of square wave impulses of continuously increasing milliamperage to the grid. Frequency of impulses 20 cycles/sec., duration 5 msec. Milliamperage is recorded on a digital amperemeter connected to the stimulator. Activation of the microphone by a mouse-squeak cuts off the current and the final milliamperage appears on the meter.
Five mice are used for each dose level. Each mouse serves as its own control.
Prior to the administration of test substance the animals are placed on the grid one at a time, and the pain threshold is determined by increasing the current intensity until the mouse squeaks. The pain threshold may be read on the milliamperemeter. Fifteen minutes and 30 minutes after administration of test substance the mice are tested again and the pain thresholds recorded.
Analgesic effect is present, when the pain threshold is increased over the pre-dosing value (control value). The results are stated as % increase in pain threshold calculated on the basis of the control value.
The registration can also be done as an on-line procedure. In this case the punching instruction and punching cards will be provided automatically and the results will be registered as a minimal effective dose (MED) determined after van der Waerdens X-test.

in vivo [4] = assay: in vivo
methylphenidate = assay: Methylphenidate antagonism in mice; type: in vivo; conditions: for ED50: Mus musculus, ip
Method: Methylphenidate antagonism (ED50 mg/kg i.p.)
as §1
3×2 mice are used for each dose level. Two or 24 hours after injection of test substance, methylphenidate, 60 mg/kg, is injected s.c. After administration of methylphenidate the mice are placed in the observation cages, 2 in each cage, where they remain for exactly 1 hour. The cages were placed on corrugated paper, the corrugations facing upwards. It is examined whether the mice have been biting the corrugated paper or not. […] If one or more of the control pairs have not been biting, the test has to be repeated on a new set of mice.
The result is stated in fractions: 0/3, 1/3, 2/3 and 3/3 where 0, 1, 2 and 3 are the number of pairs which have not been biting on receipt of the dose in question.

[5] = rats, p.o., amphetamine 10 mg/kg base i.v.
[6] = rats, p.o., strongest effect within first 6 hours, read-out: Catalep. (catalepsy wire mesh, rat, max, ED50)
[7] = 2 h, read-out: MePh antag. ED50 2 hr i.p., mice, test substance i.p., 2 hr before methylphenidate 60 mg/kg s.c.
[8] = read-out: MePh antag. ED50 2 hr i.p., mice, test substance i.p., 2 hr before methylphenidate 60 mg/kg s.c.

Structure (SMILES)	IC50 [1] [µM]	ED50 (amphetamine; [5]) [mg/kg]	Ratio catalep./Amphet. (in vivo [2])	ED50 (in vivo [2]; [6]) [mg/kg]	MED Grid Shock [3]	LD50 (in vivo [4]; iv) [mg/kg]	ED50 (methylphenidate; [7]) [mg/kg]	Amphetamine antag. ED50 p.o. (amphetamine; [5]) [mg/kg]	Catalep. (catalepsy wire mesh, rat, max, ED50) (in vivo [2]; rats, p.o., strongest effect within first 6 hours) [mg/kg]	MePh antag. ED50 2 hr i.p. (methylphenidate; mice, test substance i.p., 2 hr before methylphenidate 60 mg/kg s.c., 120 min) [mg/kg]	ED50 (in vivo [2]; Catalep. (catalepsy wire mesh, rat, max, ED50)) [mg/kg]	ED50 (amphetamine) [mg/kg]	ED50 (methylphenidate; [8]) [mg/kg]	LD50 (in vivo [4]; ip) [mg/kg]
OCCCN1CCN([C@@H]2C[C@H](c3ccc(F)cc3)c3ccc(F)cc32)CC1 (relative stereo) [Lu 14-048]	0.046	–	–	–	–	–	–	–	–	–	–	–	–	–
OCCCN1CCN([C@@H]2C[C@@H](c3ccc(F)cc3)c3ccc(Cl)cc32)CC1 (relative stereo) [Lu 17-127]	–	0.3	1.7	0.5	0.31	80	0.4	–	–	–	–	–	–	–
OCCN1CCN([C@@H]2C[C@@H](c3ccccc3)c3ccc(C(F)(F)F)cc32)CC1 (relative stereo) [Lu 18-089]	–	5	0.5	2.7	2.5	69	2.2	–	–	–	–	–	–	–
CN1CCN(C2CC(c3ccc(F)cc3)c3ccc(F)cc32)CC1 (single isomer, unassigned; (+)) [Lu 17-151, (+) 1-Methyl-4-(3-(4'-fluorophenyl)-6-fluoro-1-indanyl) piperazine]	–	–	2.7	–	0.63	113	–	6.1	16.4	1.0	–	–	–	–
CSc1ccc2c(c1)C(N1CCN(CCCO)CC1)CC2c1ccc(F)cc1 (stereo not drawn) [Lu 17-068]	–	1.8	0.7	1.3	0.31	94	0.8	–	–	–	–	–	–	–
Cc1ccc2c(c1)C(N1CCN(C(C)C)CC1)CC2c1ccc(F)cc1 (stereo not drawn) [Lu 17-069]	–	5.6	1.2	6.7	0.63	56	0.8	–	–	–	–	–	–	–
Fc1ccc(C2CC(N3CCN(CC4CCCCC4)CC3)c3cc(F)ccc32)cc1 (stereo not drawn) [Lu 17-100]	–	> 40	–	40	10	93	4	–	–	–	–	–	–	–
CSc1ccc2c(c1)C(N1CCN(C(C)C)CC1)CC2c1ccc(F)cc1 (stereo not drawn) [Lu 17-111]	–	7.8	0.9	7.1	1.3	69	2.3	–	–	–	–	–	–	–
CC(C)N1CCN(C2CC(c3ccc(F)cc3)c3ccc(Cl)cc32)CC1 (stereo not drawn) [Lu 17-129]	–	1.8	0.4	0.8	5	80	0.8	–	–	–	–	–	–	–
CC(O)CN1CCN(C2CC(c3ccc(F)cc3)c3ccc(F)cc32)CC1 (stereo not drawn) [Lu 17-143, 1-(2-hydroxy-1-propyl)-4-(3-(4'-fluorophenyl)-6-fluoro-1-indanyl)piperazine]	–	5.4	3.1	16.6	< 1.3	130	1.2	–	–	–	–	–	–	–
COc1ccc2c(c1)C(N1CCN(CCO)CC1)CC2c1ccc(F)cc1 (stereo not drawn) [Lu 18-006]	–	16.6	0.7	12	5	113	8.6	–	–	–	–	–	–	–
OCCN1CCN(C2CC(c3ccc(F)cc3)c3ccc(C(F)(F)F)cc32)CC1 (stereo not drawn) [Lu 18-012]	–	0.16	2	–	0.6	56	0.03	–	–	–	0.3	–	–	–
CC(C)c1ccc2c(c1)C(N1CCN(CCO)CC1)CC2c1ccc(F)cc1 (stereo not drawn) [Lu 18-020]	–	9.4	0.8	7.8	5	57	4.4	–	–	–	–	–	–	–
CN1CCN(C2CC(c3ccc(F)cc3)c3ccc(C(F)(F)F)cc32)CC1 (stereo not drawn) [Lu 18-023]	–	0.2	2	0.4	1.25	94	1.1	–	–	–	–	–	–	–
CN1CCN(C2CC(c3ccc(F)cc3)c3ccc(S(C)(=O)=O)cc32)CC1 (stereo not drawn) [Lu 18-040]	–	12	0.8	10	> 20	130	8.3	–	–	–	–	–	–	–
OCCCN1CCN(C2CC(c3ccc(F)cc3)c3ccc(C(F)(F)F)cc32)CC1 (stereo not drawn) [Lu 18-048]	–	0.16	0.4	0.07	1.3	57	0.12	–	–	–	–	–	–	–
CC(C)N1CCN(C2CC(c3ccc(F)cc3)c3ccc(C(F)(F)F)cc32)CC1 (stereo not drawn) [Lu 18-050]	–	0.22	2.4	0.52	10	57	0.44	–	–	–	–	–	–	–
OCC(O)CN1CCN(C2CC(c3ccc(F)cc3)c3ccc(C(F)(F)F)cc32)CC1 (stereo not drawn) [Lu 18-063]	–	0.12	3.2	0.38	1.25	57	0.4	–	–	–	–	–	–	–
CN(C)CCCN1c2ccccc2Sc2ccc(Cl)cc21 [chlorpromazine, reference compound]	–	–	1.19	25	5	56.5	–	–	–	–	–	21	5.6	–
OCCN1CCN(CCCN2c3ccccc3Sc3ccc(C(F)(F)F)cc32)CC1 [fluphenazine, reference compound]	–	0.7	0.43	0.3	2.5-5	98	0.04	–	–	–	–	–	–	–
O=C(CCCN1CCC(O)(c2ccc(Cl)cc2)CC1)c1ccc(F)cc1 [haloperidol, reference compound]	–	–	1.0	0.4	< 5	–	–	–	–	–	–	0.4	0.04	226
